Type in all cases: in vivo
For one test, the system named is NF-κB. Description: Target DNA binding activity of NF-κB in skeletal muscle (TransAM NF-κB ELISA). To be noted: gastrocnemius muscle; C57BL/6 mice; cisplatin-treated; Pae 10 and Pae 20; FIG. 12C. How it is done: Nuclear and cytoplasmic lysates were prepared from the skeletal muscle using a nuclear extraction kit (Active Motif, Carlsbad, CA, USA). The protein concentration of both lysates was measured using the BCA Protein Assay Kit (Pierce). Anti-NF-κB p65 was used as the primary antibody, and 10 μg of protein per lysate was analyzed by Western blotting. TBP (TATA box-binding protein) and β-actin were as controls for the nuclear and cytosolic lysates, respectively. The target DNA binding activity of NF-κB was measured using the TransAM NF-κB ELISA kit (Active Motif, USA).
(In general: In an ELISA, binding on a coated surface is turned into a signal by an enzyme label.)

Test [1] deals with C57BL/6 mice with cisplatin-induced cachexia. The test is described as follows: Body weight and muscle mass in cisplatin-treated C57BL/6 mice. The method, then: The animal experiments were performed in accordance with internationally accepted principles for laboratory animal use and care, and the corresponding study protocol was reviewed and approved by the Institutional Animal Care and Use Committee (IACUC) at Chung-Ang University (approval #2021-00022). Four-week-old female C57BL/6 mice and Balb/c mice were purchased from Raonbio Inc. (Yongin, Korea) and were provided with standard laboratory diet and water ad libitum in the animal facility of Chung-Ang University. After a week of acclimation, the mice were intraperitoneally injected three times with 3 mg/kg/day cisplatin, suspended in 200 μL saline, every other day. Control group mice (sham-treated mice) were injected with the same volume of saline under the same regimen. The cisplatin-treated groups were orally administered paeoniflroin (Pae) or megestrol acetate (MA), suspended in 200 μL distilled water, every day until euthanasia.
Specifically, the cisplatin-treated groups were orally administered paeoniflorin (prepared in Example 1) at a dose of 5 (Pae 5 group), 10 (Pae 10 group), or 20 (Pae 20 group) mg/kg once daily for 9 days. The comparative drug-treated group was orally administered megestrol acetate (MA), which is currently most commonly prescribed for cancer cachexia patients in clinical practice, at a dose of 160 mg/kg (=800 mg [daily human dose]/60 kg [average human body weight]×12 [dose equivalent factor based on human:mouse body surface area ratio], once daily for 9 days.
(§1) In addition, cisplatin-treated mice orally administered the same volume of distilled water were designated as the vehicle group. After completion of drug treatment, the mice of each group were euthanized with 10 mg/kg alfaxalone (Jurox, Rutherford, Australia). Blood was collected in test tubes containing EDTA, and centrifuged, and plasma was separated therefrom. Gastrocnemius and quadriceps skeletal muscles were dissected and weighed. The skeletal muscles were rapidly frozen in liquid nitrogen to be used for RT-qPCR, Western blotting, and ELISA.

Test [2] deals with TNF-α, IL-6, IL-1β, IL-1α, CCL2 and CCL5. Description: mRNA levels of pro-inflammatory cytokines and chemokines in skeletal muscle by real-time PCR, C57BL/6 mice. As to conditions: cisplatin-treated, Pae 10 and Pae 20 vs vehicle. The method, then: as §1
Total RNA was isolated from skeletal muscle using Qiazol (Qiagen, Germany), and then the mRNA levels of pro-inflammatory cytokines and muscle-specific ubiquitin E3 ligases (MuRF1 and MAFbx) were measured by real-time PCR.
The mRNA levels of pro-inflammatory cytokines such as TNF-α, IL-6, IL-1β, and IL-1α, as well as chemokines such as CCL2 and CCL5, in the skeletal muscle, were measured by real-time PCR.
For orientation: Quantitative PCR measures a nucleic acid by following its amplification.

For another test, the system named is GDF-15. Description: GDF-15 by ELISA in C57BL/6 mice with Lewis lung carcinoma-induced cachexia. To be noted: Lewis lung carcinoma-injected, paeoniflorin orally for 9 days, FIG. 18. The method, then:
(§2) Each mouse of the control group was injected subcutaneously with 100 μL of saline solution. For the cachexia-induced groups, Lewis lung carcinoma cells (C57BL/6 mice) or colon-26 carcinoma cells (Balb/c mice) were injected subcutaneously into the flank area of each mouse at a dose of 10^6 cells/100 μL/mouse. […] After completion of 9 days of administration, the muscle strength of the mice was measured using a grip strength test device (Bioseb, USA), and the endurance of the mice was measured using a treadmill device (Columbus Instrument, USA).
(§3) After completion of the experiment, the mice were euthanized, blood was collected therefrom, the body weight excluding tumors, and the weights of the hind limb gastrocnemius muscle and quadriceps muscle were measured. GDF-15 in the serum was quantified by ELISA.
After oral administration of paeoniflorin to the tumor-induced mice for 9 days, blood was collected from the mice, and the plasma concentration of GDF-15 protein was analyzed by ELISA.

Test [3] relates to Balb/c mice with colon-26 carcinoma-induced cachexia. The test is described as follows: Body weight and muscle mass in Balb/c mice with colon-26 carcinoma-induced cachexia. To be noted: colon-26 carcinoma-injected, paeoniflorin orally once daily for 9 days vs colon-26 carcinoma-injected group. How it is done:
(§4) As the experimental animals, 4-week-old female C57BL/6 mice and Balb/c mice weighing 18 g to 20 g were purchased from Raon Bio (Yongin, Korea), acclimatized in the laboratory animal facility for one week, and then used in the experiment. During the experiment period, the animals were provided with solid feed and water ad libitum, and the breeding room was maintained at a temperature of 20° C. to 24° C. and a relative humidity of 55% to 65% with a 12-hr light/12-hr dark cycle.
(§5) Mice were divided into a control group and a cachexia-induced group, and the cachexia-induced group was subdivided into a tumor cell-injected group, a tumor cell-injected and existing drug (MA, megestrol acetate)-administered group, and tumor cell-injected and paeoniflorin (Pae)-administered groups. Each group consisted of 10 animals.
as §2, §3

The test system is the same in test [4]. The test is described as follows: Muscle strength and endurance in Balb/c mice with colon-26 carcinoma-induced cachexia. To be noted: colon-26 carcinoma-injected, paeoniflorin orally for 9 days. The method, then: as §4, §5, §2
Test [5] concerns C57BL/6 mice with Lewis lung carcinoma-induced cachexia. Description: Muscle strength and endurance in C57BL/6 mice with Lewis lung carcinoma-induced cachexia. How it is done: as §4, §5, §2

The structures appear in SMILES notation.

As to `C[C@@]12C[C@@]3(O)O[C@@H](O1)[C@]1(COC(=O)c4ccccc4)[C@H]3C[C@@]12O[C@@H]1O[C@H](CO)[C@@H](O)[C@H](O)[C@H]1O` [paeoniflorin], in the test with NF-κB, the “target DNA binding activity of NF-κB” value is listed as “decreased”. The “cisplatin-induced weight loss (body weight)” value in test [1] (cisplatin 3 mg/kg/day i.p. three times, paeoniflorin 10 or 20 mg/kg orally daily for 9 days, vs vehicle, FIG. 1A) is given as “attenuated”. Moreover, the “weight of gastrocnemius muscle (skeletal muscle mass)” value in test [1] (cisplatin-treated, paeoniflorin 10 or 20 mg/kg orally daily, FIG. 1B) is reported as “restored”. For the same compound, in test [1] (cisplatin-treated, paeoniflorin 10 or 20 mg/kg orally daily, FIG. 1C), the “weight of quadriceps muscle (skeletal muscle mass)” value is on record as “restored”. For the same compound, in test [2] (FIG. 8A), the “TNF-α mRNA expression level in the muscle” value was “decreased”. Also, the “IL-6 mRNA expression level in the muscle” value in test [2] (FIG. 8B) is recorded as “decreased”. Moreover, in test [2] (FIG. 8C), the “IL-1β mRNA expression level in the muscle” value is recorded as “decreased”. The “IL-1α mRNA expression level in the muscle” value in test [2] (FIG. 8D) is listed as “decreased”. In addition, in test [2] (FIG. 8E), the “CCL2 mRNA expression level in the muscle” value was “decreased”. Moreover, the “CCL5 mRNA expression level in the muscle” value in test [2] (FIG. 8F) was “decreased”. Moreover, the “serum concentration of GDF-15” value in the test with GDF-15 was “significantly decreased”. Moreover, in test [3] (FIG. 15A), the body weight entry is reported as “significantly increased”. Moreover, the “weight of gastrocnemius muscle” value in test [3] (FIG. 15B) is recorded as “significantly increased”. Besides, the “weight of quadriceps muscle” value in test [3] (FIG. 15C) is given as “significantly increased”. Further, the muscle strength result in test [4] (FIG. 17A) is “significantly increased”; in test [5] (C57BL/6 mice, Lewis lung carcinoma-injected, paeoniflorin orally for 9 days, FIG. 16A), “significantly increased”. Moreover, the endurance entry is “significantly increased” in test [4] (FIG. 17B) and “significantly increased” in test [5] (C57BL/6 mice, Lewis lung carcinoma-injected, paeoniflorin orally for 9 days, FIG. 16B). The “effect on muscle function compared with megestrol acetate (MA)” value in test [5] (Lewis lung carcinoma C57BL/6 mice, paeoniflorin 10 to 20 mg/kg/day vs megestrol acetate 160 mg/kg/day) was “better effect”.

For the origin of these results see patent US20240325420A1, “COMPOSITION INCLUDING PAEONIFLORIN FOR PREVENTION OR TREATMENT OF CACHEXIA AND MUSCLE LOSS” (CHUNG ANG UNIVERSITY INDUSTRY ACADEMIC COOPERATION …, priority 2021, published 2024).
